From paper PMC2883068 (Molecular Microbiology, 2010)

Target: T1, Rex (Staphylococcus aureus, UniProt P60386)
T1 sequence (P60386 1-211): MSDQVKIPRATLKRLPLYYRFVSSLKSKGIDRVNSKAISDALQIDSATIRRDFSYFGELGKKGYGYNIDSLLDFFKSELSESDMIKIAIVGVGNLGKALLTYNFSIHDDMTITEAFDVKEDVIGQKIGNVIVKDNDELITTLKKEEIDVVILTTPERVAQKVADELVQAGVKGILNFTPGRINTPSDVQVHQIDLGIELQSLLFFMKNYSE
Test: isothermal titration calorimetry
Format: binding

SMILES | Kd [µM]
NC(=O)C1=CN([C@@H]2O[C@H](COP(=O)(O)OP(=O)(O)OC[C@H]3O[C@@H](n4cnc5c(N)ncnc54)[C@H](O)[C@@H]3O)[C@@H](O)[C@H]2O)C=CC1 [NADH] | 0.095 ± 0.005
NC(=O)c1ccc[n+]([C@@H]2O[C@H](COP(=O)(O)OP(=O)(O)OC[C@H]3O[C@@H](n4cnc5c(N)ncnc54)[C@H](O)[C@@H]3O)[C@@H](O)[C@H]2O)c1 [NAD^+] | 150 ± 20
